Data from a melting point compilation (Tetko et al.; mined from patent text by program, amines drawn as free bases though some values may be those of a salt).

SMILES	melting point [°C]
COC1(c2ccc(F)cc2)CCC(=O)CC1	57 to 59
CSc1cn(C)cc(-c2cccc(C(F)(F)F)c2)c1=O	121 to 122
CC(C)OC(=O)Nc1cc(-c2ccnc3c(C(=O)c4cccs4)cnn23)ccc1N(C)C	164 to 165
CC(C)n1cc(-c2ccc3nnn(Cc4ccc5ncccc5c4)c3n2)cn1	126 to 128
CC(CCN1c2cccc3cccc(c23)S1(=O)=O)N1CCN(c2ccc(F)cc2)CC1 (stereo not drawn)	122
O=C(NCc1ccc(Cl)cc1)c1cn(CCN2CCCCC2)c2ccc(C#CCO)cc2c1=O	176 to 180
C=CCC(O)(Cn1cncn1)C1(Cl)CC1 (stereo not drawn)	75 to 76
O=C(CNC(=O)OC(c1ccccc1)c1ccccc1)Oc1c(Cl)c(Cl)c(Cl)c(Cl)c1Cl	171 to 172
CC(C)=C1NC(=O)c2ccccc2S1	187 to 188
O=P1(c2ccccc2)NCc2ccccc21 (stereo not drawn)	177 to 180
O=C(CCN1C(=O)c2ccccc2C1=O)c1ccccc1C(=O)c1ccc(Cl)cc1Cl	133 to 134
N#CCc1cccc2c(-c3ccc([N+](=O)[O-])cc3)nccc12	219
Fc1ccc(-n2nc(-c3nc(-c4ccccc4)cs3)c3c2C2CCC3C2)c(F)c1 (stereo not drawn)	128 to 130
CC(C)(C)OC(=O)N1[C@@H](Cc2ccc(O[Si](C)(C)C(C)(C)C)c(C(C)(C)C)c2)C(=O)O[C@H](c2ccccc2)[C@@H]1c1ccccc1	75 to 83
OC[C@H]1C[C@H]2CN(c3ncc(F)cn3)CCN2C1	123 to 124
CCNC1CCN(c2c(F)c(N)c3c(=O)c(C(=O)O)cn(C4CC4)c3c2OC)CC1C (stereo not drawn)	230 to 232
O=C(CCl)Nc1ccc2c(c1NC(=O)c1cc(C(F)(F)F)ccc1C(F)(F)F)C(=O)c1ccccc1C2=O	187 to 188
Cn1cnnc1C(N)(c1ccc(C#N)cc1)c1ccc2c(c1)c(-c1cccc(Cl)c1)nc1nnnn12 (stereo not drawn)	194
OC(Cn1cncn1)(Cn1cnc(C=Cc2ccc(OC(F)(F)F)cc2)n1)c1ccc(F)cc1F (stereo not drawn)	149 to 151
CC(C)C(=O)NCCNC(=O)OC(C)(C)C	116 to 117
Cn1ccc2cc(/C=C/C3=CCN(Cc4ccccc4)CC3)ccc21	138
Cc1cccc2c(Nc3cc(CO)cc(NC(=O)Nc4ccc(N(CCCl)CCCl)cc4)c3)c3ccccc3nc12	251 to 252

SMILES	melting point [°C]
CCCN1CCCN(c2ccccc2)c2cc(Cl)ccc21	192 to 194
OC1C=CC2COC1O2 (stereo not drawn)	65.6 to 66.4
CC(=O)NNc1ccc(-n2c(-c3ccccc3)csc2=S)cc1	230 to 232
CCc1oc2ccccc2c1C(=O)c1cc(C(C)C)c(OS(=O)(=O)c2ccc(C(=O)O)c(O)c2)c(C(C)C)c1	200 to 201
O=C(c1ccccc1)C1CCCc2cccnc21 (stereo not drawn)	205 to 207
CN1c2cscc2C(=O)N(CCN2CCOCC2)c2ccccc21	109 to 111
CC(C)(C)OC(=O)N1CCN(c2cccc([N+](=O)[O-])c2)CC1	82 to 92
CC(C)(C)OC(=O)N1CCC(CS(=O)Cc2cc(C(F)(F)F)cc(C(F)(F)F)c2)(c2ccccc2)CC1 (stereo not drawn)	123 to 134
COC(=O)Cc1ccc(OCCNC(=O)C2Cc3ccccc3N2S(=O)(=O)c2ccc(-c3ccc(Cl)cc3)c(C(F)(F)F)c2)cc1 (stereo not drawn)	60
O=Cc1c(Cl)n(CC2CC2)c2ccccc12	108 to 109
COc1ccc(CN2C(=O)C(C)(c3cc(N(S(C)(=O)=O)S(C)(=O)=O)ccc3Cl)c3cc(Cl)ccc32)c(OC)c1 (stereo not drawn)	159
CC1Cc2c(O)cc(C(=O)O)cc2O1 (stereo not drawn)	181 to 184
Cc1ccc(S(=O)(=O)N2[C@@H](CCc3ncnn3C)CC[C@H]2c2ccc(F)cc2)cc1 (racemic)	145
NC(=O)c1ccc(F)c2c1CC([N+](=O)[O-])CO2 (stereo not drawn)	184 to 186
CC(C)(C(=O)O)c1ccc(CCl)cc1	121 to 122
Clc1ccc(COc2ccc(Cl)cc2C(c2ccccc2)n2ccnc2)c(Cl)c1 (stereo not drawn)	132 to 134
Cc1nc(NC(=O)c2cnn3c(C(F)F)cc(-c4ccc(C(F)(F)F)cc4)nc23)sc1S(=O)(=O)NCCO	134
Cn1c(=O)c2c(N)nc(N)nc2n(C)c1=O	> 300
CCc1[nH]n(C2CCCC2)c2nc(-c3ccc(Cl)cc3O)nc(=O)c1-2	> 300
CC(=C(Cl)Cl)c1cc(N)c(S(N)(=O)=O)cc1S(N)(=O)=O	199 to 202
Oc1cccc(N2CCCC2)n1	154 to 158
CN(C)C1CCc2[nH]c3cccc(OCc4ccccc4)c3c2C1 (stereo not drawn)	207 to 209

Now from value to molecule:

melting point [°C]	SMILES
141 to 142	CCOc1ccc(CC(=O)Cc2csc(-c3ccc(OC)c(OC)c3)n2)cc1OCC
163 to 168	CC(=NNC(=O)c1cccc([N+](=O)[O-])c1O)c1ccccc1
68	CCCOc1ccc(Cc2nn(-c3ccccc3Cl)c(=O)o2)cc1
189	C[C@]12C[C@H](c3ccc(OCCCCCS(=O)CCCC(F)(F)C(F)(F)F)cc3)[C@@H]3c4ccc(OC5CCCC5)cc4CC[C@H]3[C@@H]1CC[C@@H]2O (stereo partly drawn)
215 to 216	NC(=O)c1ccc(-c2ccc(O)cc2)cc1Cl
168 to 170	Cc1ccc(C(=O)c2cccnc2C(=O)O)cc1
133 to 134	COc1cc(OC)nc(Oc2cccc(F)c2C(=O)O)n1
90 to 91	CC(C)(C)COc1ccc([N+](=O)[O-])cc1C#N
173	Cc1cc(C(=O)O)ccc1C1=CCCc2ccccc21
120 to 122	COC(=O)C1(CC#N)C(=O)N(C)C(=O)c2ccccc21 (stereo not drawn)
166 to 169	CCOC(=O)c1cnc2c(c(C)nn2-c2ccccn2)c1O
236	O=C(Nc1ccccn1)c1c(C(F)(F)F)nc2c(C(F)(F)F)cccc2c1O
88 to 89	CCCCS(=O)(=O)Nc1ccccc1COc1cccc2cccnc12
68	Cc1ccc(C(=O)c2ccc(F)cc2)s1
140 to 143	CC(C)(C)COc1ccc(N(CC(=O)O)C(=O)c2cccn2-c2ccc(F)cc2)cc1C#N
51 to 54	CCCC(=O)CCCCCC(=O)N[C@@H](C)C(=O)OC
33 to 35	CCOC(=O)COCC(=O)c1ccccc1
198 to 202	CC(C)(C)NCC(O)COc1cc(N)ccc1-c1ccc(=O)[nH]n1 (stereo not drawn)
222 to 224	COc1ccccc1-c1coc2cc(O)ccc2c1=O
140	COc1cc2c(cc1OCc1ccccc1)ncc1c(N)nc(-n3ccnc3)cc12
154 to 155	CC(=O)Nc1ccc(C)c(NCCS(=O)(=O)F)c1
47.5 to 48.5	Cc1cc(C)cc(C(Cl)=NNc2ccccc2)c1
102	CCCCCCCCCCCCCCCCCC(O)c1ccc(O)c(C(=O)O)c1 (stereo not drawn)
110 to 112	O=C(Nc1ccc(Oc2ccnc(NC3CCC3)n2)c2ccccc12)c1cc(F)cc(N2CCOCC2)c1
230 to 234	Cc1nc2c(N)cc(C(=O)N(C)C)cc2n1C
158 to 159	COc1cc2ncc(N3C(=O)C4CCC3CC4)nc2cc1OC
177 to 178	Cc1c(NC(=O)c2ccc(OCc3ccc(F)cc3)cc2)ccc2cc(CN3CCCC3)cnc12

melting point [°C]	SMILES
111 to 113	COc1cc(NC(=O)CCCCCBr)c2nccc(C)c2c1
148	CCNCCCOc1ccc(-c2ccc(C(=O)OCC)cc2)cc1-c1ccc2c(c1)C(C)(C)CCC2(C)C
130 to 131	COc1ccc2cc3c(Br)nn(C(C)C)c3nc2c1
75	CC(Oc1cc(Oc2ccc(C(F)(F)F)cc2Cl)ccc1[N+](=O)[O-])C(=O)OCn1cccn1 (stereo not drawn)
82	COc1ccc(-c2nc(CCCCCC(C)(C)c3nnn[nH]3)oc2-c2ccc(OC)cc2)cc1
63	CC(=O)c1cnc2onc(C)c2c1Cl
252 to 254	CCOC(=O)c1cnc(Nc2cc(C)ccc2C)[nH]c1=O
176 to 178	COc1cc(C(=O)O)ccc1NC(=O)OC(C)(C)C
115 to 119	COc1ccc(C2(C)Cc3cc(OCc4ccccc4)c(Cl)c(Cl)c3C2=O)cc1 (stereo not drawn)
169 to 170	OCCNc1c(Br)cnc2cc(Cl)ccc12
188	COc1cc(OC)c(-c2nc(N)sc2C)cc1Cl
56 to 57	COc1ccc(C(C#Cc2ccccc2)Cc2nc(C)co2)cc1OC1CCCC1 (racemic)
140 to 142	CCc1cc(NC(=O)c2nnnn2Cc2ccc(OC)cc2)c(O)c(C(C)=O)c1
169 to 171	Cc1cc(C)c(COc2cccnc2NC(=N)Nc2ccc(Cl)cc2)c(C)c1
147 to 148	CCOC(=O)c1cc(OC)c2c(C)c(CCN(CC)CC)c(=O)oc2c1Cl
145 to 147	Clc1ccc(-c2onc3c(CBr)cc(Cl)cc23)cc1
53 to 55	COC(=O)CC/C(C)=C/Cc1c(OC)c(C)c2c(c1OS(=O)(=O)C(F)(F)F)C(=O)OC2
120 to 122	COC(=O)c1sc2cccc(Cl)c2c1Br
84 to 85	COc1ccc(Br)c2ccc(C(F)(F)F)nc12
170 to 171	O=C(O)COC1=C(Cc2ccc3ccccc3c2)C(=O)CCC1
101 to 123	CCc1nc2cc(NS(C)(=O)=O)c(Cl)cc2n1-c1ccc(CCNC(=O)NS(=O)(=O)c2ccc(C)cc2)cc1
42 to 43	CC(C)C[C@H](NC(=O)OCCC1c2ccccc2-c2ccccc21)C(=O)O
160 to 161	COC(=O)c1cc(F)c(OC)nc1Nc1ccc(F)cc1F
161 to 162	C[C@H]1CCCN(C(=O)Cc2ccc(Cl)c(Cl)c2)[C@H]1CO (relative stereo)
90	C=CCOc1ccc(C[C@@H](NC(C)=O)C(=O)OC)cc1
194 to 196	CCOC(=O)c1cc(Cl)c(-n2nc(CC)c(C(N)=O)c2N)c(Cl)c1
270	Nc1cc(C(=O)O)cc(S(N)(=O)=O)c1Oc1cccc(C(F)(F)F)c1
